# Laboratory results reported in patent publication US20250195556A1, “COMPOSITIONS, KITS, AND METHODS TO INDUCE ACQUIRED CYTORESISTANCE USING STRESS PROTEIN INDUCERS” (FRED HUTCHINSON CANCER RESEARCH CENTER, priority 2014, published 2025).
# Values joined by “and” are separate entries in the source; they are usually repeats but may differ in a detail not shown here. Identical values can stand only once.
# Assays:
# Male CD-1 mice [1] = experiment: Maleate model of AKI (FeS, SnPP, FeS+SnPP); type: in vivo; settings: 1 mg FeS or 1 μmole SnPP IV alone 18 hrs before maleate
# Excerpt: Methods. Male CD-1 mice (25-40 grams) Charles River, Wilmington, MA) were used for all experiments. They were housed under standard vivarium conditions with free food and water access. All experiments were approved by the Fred Hutchinson Cancer Research Center IACUC in accordance with NIH guidelines.
# Effects of Fe sucrose (FeS)/tin protoporphyrin (SnPP) on AKI severity. Maleate model of AKI. When injected into rodents, maleate undergoes relatively selective proximal tubule cell uptake via organic anion transporters. Once intracellular accumulation occurs, maleate is a preferred substrate for succinyl-CoA: 3-oxoacid CoA transferase. […] Ample levels of CoA are essential for fatty acid “activation”, allowing for their subsequent metabolism through the Krebs cycle, yielding ATP. In the absence of this process, proximal tubule ATP depletion and cell injury result. Additionally, maleate conjugates the sulfhydryl group of glutathione (GSH), culminating in GSH depletion and potential oxidant tubular stress.
# The following experiment tested whether FeS, SnPP or combined FeS+SnPP can mitigate this form of acute kidney injury (AKI). […] The severity of kidney injury was assessed by determining plasma blood urea nitrogen (BUN) and plasma creatinine (PCr) concentrations.
# HO-1 = experiment: Renal cortical HO-1 mRNA (RT-PCR) and protein (ELISA) after IV myoglobin, SnPP or both (Example 1); type: in vivo, mice
# Excerpt: The Glycerol Model of AKI. This is a widely used model of rhabdomyolysis-induced AKI that has been employed worldwide for 50 years. The model was used to test whether prophylactic interventions confer protection against AKI. Basically, the protocol is as follows: Male CD-1 mice (35-45 grams), obtained from Charles River Laboratories, Wilmington, M A were studied. Mice were maintained under standard vivarium conditions and generally housed for 1-3 weeks prior to study. The mice were placed in a cylindrical restraining cage, and then were given a tail vein injection of the test substances (see below) or test substance vehicle. The mice were then returned to their cages. Eighteen hours (hrs) later, the mice were briefly anesthetized by isoflurane inhalation, and given an intramuscular injection of hypertonic (50%) glycerol in a dose of 9 ml/Kg body weight. The dose is divided in two, with half injected into the muscle of each of the hind limbs. The mice were then returned to their cages. Eighteen hrs later, the mice were deeply anesthetized with pentobarbital (50-100 mg/Kg), the abdominal cavity was opened through a midline abdominal incision, a blood sample was obtained from the abdominal vena cava and the kidneys were resected. A kidney cross section was obtained and fixed in formalin for subsequent histologic analysis. The terminal blood samples were analyzed for BUN and creatinine, using commercially available assay kits. The remaining kidney tissue was subjected to cortical dissection, and the cortical tissues were then extracted for protein and RNA. The protein samples were saved for analysis of HO-1 levels, and the RNA samples were subjected to RT-PCR to quantify HO-1 mRNA as well as levels of other stress gene mRNAs (e.g. NGAL, haptoglobin, hemopexin, hepicidin).
# Myoglobin+SnPP: To 5 mg of dry myoglobin was added 0.9 ml of PBS+0.1 ml of a stock SnPP solution (50 umole/ml). The resulting final concentrations were 5 mg/ml myoglobin+5 umoles/ml of SnPP. The tail vein was injected with 200 μl of this solution, which equals 1 mg myoglobin+1 umole SnPP. […]
# Four hr post myoglobin vs myoglobin+SnPP vs SnPP alone experiments. To confirm that the myoglobin+SnPP has a synergistic effect in inducing HO-1 mRNA and HO-1 protein levels, each of the above combinations have been administered alone via tail vein injection. Four hrs later, the mice were sacrificed as noted above and the kidneys were harvested for assessment of HO-1 mRNA and protein levels. For additional information regarding methods, see Zager et al., Am J Physiol Renal Physiol. 2014 Jul. 30. Pii.
# haptoglobin = experiment: Liver haptoglobin mRNA and protein after IV N-Mgb, SnPP or both; type: in vivo, mice; set-up: Liver protein: Haptoglobin: unit not given beside the values; settings: for Liver mRNA: Haptoglobin: control 0.5; for Liver protein: Haptoglobin: control 115.3
# Method: Thirty-two mice were divided into 4 equal groups: (1) control mice; (2) mice treated with 1 mg of N-Mgb injection (as a bolus through the tail vein); (3) mice treated with […] of SnPP (via tail vein); and (4) mice treated with combined N-Mgb 1 SnPP. After either 4 hours (n=16) or 18 hours (n=16), the mice were deeply anesthetized with pentobarbital (50 mg/kg), the abdomen was opened through a midline abdominal incision, and the kidneys were removed. To determine potential effects on extrarenal organs, a liver lobe and the heart were also removed. The tissues were iced and then extracted for protein and RNA (RNeasy Plus Mini; Qiagen, Valencia, California) and subjected to enzyme linked immunosorbent assay (ELISA) and reverse transcriptase polymerase chain reaction (RT-PCR) for HO-1, haptoglobin, and IL-10 protein and messenger RNAs (mRNAs). Zager et al. J Am Soc Nephrol 2014; 25:998-1012; Zager et al. Am J Physiol 2012; 303: F139-48. As an assessment of renal function, control mice and the 18 hour after N-Mgb+SnPP-treated mice had blood urea nitrogen (BUN) and plasma creatinine levels measured. Additionally, transverse 10% formalin fixed kidney sections ([…]) were cut and stained with hematoxylin and eosin (H&E) and periodic acid Schiff (PAS) to further assess potential injury.
# Male CD-1 mice [2] = experiment: Glycerol model of rhabdomyolysis-induced AKI (Example 4); type: in vivo; settings: IV pretreatment 18 hours before glycerol; 18 hours after glycerol
# Method: Assessments of cytoresistance. Glycerol model of rhabdomyolysis-induced AKI. Twenty mice were divided into 4 equal groups (controls, mice treated with N-Mgb, SnPP, and mice treated with N-Mgb+SnPP tail vein injections) as described previously. 18 hours later, the mice were briefly anesthetized with isoflurane and immediately injected with 9 mL/kg of 50% glycerol, administered in equally divided doses into each hind limb. At 18 hours after glycerol injection, the mice were anesthetized with pentobarbital, the abdomen was opened, a blood sample for BUN and creatinine assessments was obtained from the vena cava, and the kidneys were resected. The control post-glycerol group and the N-Mgb+SnPP-pretreated glycerol group had kidney sections stained with H&E.
# Calculations and statistics. All values are given as the mean […] standard error of the mean. Statistical comparisons were made by unpaired Student's t test. If multiple comparisons were made, the Bonferroni correction was applied. The severity of renal histologic injury in the glycerol AKI model was graded on a […] (least to most severe tubular necrosis and cast formation observed). The histologic results were compared by Wilcoxon rank sum test. Statistical significance was taken as a P value of <0.05.
compound,measurement,setting,value
"C=Cc1c2[n-]c(c1C)/C=c1\[n-]/c(c(C)c1C=C)=C\c1[n-]c(c(CCC(=O)O)c1C)/C=c1\[n-]c(c(C)c1CCC(=O)O)=C2.[Sn+4] [SnPP, tin protoporphyrin, reference compound]","Severity of maleate-induced renal injury (BUN, PCr)",Male CD-1 mice [1],Neither SnPP alone nor FeS alone significantly altered
same,"HO-1 protein expression (by ELISA), Average","HO-1; cortex, 4 hr IV, 1 mg myoglobin, 1 μmole SnPP, PBS 13.5, carrier 21.5",34.4 ng HO-1/mg protein
same,HO-1 protein expression (by ELISA),"HO-1; cortex, 4 hr IV, 1 mg myoglobin, 1 μmole SnPP, individual mice",31.5 ng HO-1/mg protein and 20.5 ng HO-1/mg protein and 53.6 ng HO-1/mg protein and 32.2 ng HO-1/mg protein
same,"HO-1/GAPDH mRNA, Average","HO-1; kidney, 4 hr post IV injection, control average 1.93",6.94
same,HO-1/GAPDH mRNA,"HO-1; kidney, 4 hr post IV injection, individual mice",9.72 and 8.25 and 6.95 and 2.85
same,Liver mRNA: Haptoglobin,haptoglobin; 4 h after Rx,0.32 ± 0.02
same,Liver protein: Haptoglobin,haptoglobin; 4 h after Rx,130.0 ± 8.9
same,Liver mRNA: Haptoglobin,haptoglobin; 18 h after Rx,0.65 ± 0.17
same,Liver protein: Haptoglobin,haptoglobin; 18 h after Rx,212.0 ± 63.6
same,Protection against glycerol-induced AKI (BUN/creatinine levels),Male CD-1 mice [2],virtually no effect
